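Protocol summary: plate cells (96-well), add compound at 5 concentrations, incubate 48 h, interpolate endpoints linearly. TGI: total growth inhibition.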
What was measured:
Assay in all cases: DTP human tumour cell line panel, 48 h
BT-549 breast = tested on: BT-549 breast
CAKI-1 renal = tested on: CAKI-1 renal
COLO 205 colon = tested on: COLO 205 colon
SNB-19 CNS = tested on: SNB-19 CNS
RXF 393 renal = tested on: RXF 393 renal
SW-620 colon = tested on: SW-620 colon
UACC-257 melanoma = tested on: UACC-257 melanoma
SR leukemia = tested on: SR leukemia
MDA-N = tested on: MDA-N
786-0 renal = tested on: 786-0 renal
RPMI-8226 leukemia = tested on: RPMI-8226 leukemia

SMILES: CN(CCO)CCCC1COc2ccccc2O1 (stereo not given)
- TGI (BT-549 breast): > 100 µM
- TGI (CAKI-1 renal): > 100 µM
- TGI (COLO 205 colon): > 100 µM
- TGI (SNB-19 CNS): > 100 µM
- TGI (RXF 393 renal): > 100 µM
- TGI (SW-620 colon): > 100 µM
- TGI (UACC-257 melanoma): > 100 µM
- TGI (SR leukemia): > 100 µM
- TGI (MDA-N): > 100 µM
- TGI (786-0 renal): > 100 µM

SMILES: CCCCCCCC(CC(=O)NC(CO)C(=O)NC(CO)CC(C)C)OC(=O)CC(CCCCCCC)OC(=O)CC(CCCCCCC)OC1OC(C)C(O)C(OC2OC(C)C(O)C(O)C2OC(C)=O)C1O (stereo not given)
- TGI (BT-549 breast): 25.1 µM
- TGI (CAKI-1 renal): 28.3 µM
- TGI (COLO 205 colon): 5.47 µM
- TGI (SNB-19 CNS): 20.8 µM
- TGI (RXF 393 renal): 9.29 µM
- TGI (SW-620 colon): 22.2 µM
- TGI (UACC-257 melanoma): 13.5 µM
- TGI (SR leukemia): 4.93 µM
- TGI (MDA-N): 16 µM
- TGI (786-0 renal): 17.6 µM

SMILES: COc1ccc(/C=C2\CCS(=O)(=O)c3ccccc3C2=O)cc1OC
- TGI (BT-549 breast): 76.2 µM
- TGI (CAKI-1 renal): > 100 µM
- TGI (COLO 205 colon): > 100 µM
- TGI (SNB-19 CNS): > 100 µM
- TGI (RXF 393 renal): > 100 µM
- TGI (SW-620 colon): > 100 µM
- TGI (UACC-257 melanoma): > 100 µM
- TGI (SR leukemia): 89.1 µM
- TGI (RPMI-8226 leukemia): > 100 µM
- TGI (MDA-N): > 100 µM
- TGI (786-0 renal): > 100 µM

SMILES: O=C(CCCCCCCCC(=O)N1C(=O)CC(=O)N(c2ccccc2)C1=S)N1C(=O)CC(=O)N(c2ccccc2)C1=S
- TGI (BT-549 breast): > 100 µM
- TGI (CAKI-1 renal): > 100 µM
- TGI (COLO 205 colon): > 100 µM
- TGI (SNB-19 CNS): > 100 µM
- TGI (RXF 393 renal): > 100 µM
- TGI (UACC-257 melanoma): > 100 µM
- TGI (SR leukemia): > 100 µM
- TGI (RPMI-8226 leukemia): > 100 µM
- TGI (MDA-N): > 100 µM
- TGI (786-0 renal): > 100 µM

SMILES: CCO[C@@]1(COCc2ccccc2)OC(=O)C[C@@H]1N1C(=O)OC[C@@H]1c1ccccc1
- TGI (BT-549 breast): > 100 µM
- TGI (CAKI-1 renal): 76.4 µM
- TGI (COLO 205 colon): > 100 µM
- TGI (SNB-19 CNS): > 100 µM
- TGI (RXF 393 renal): > 100 µM
- TGI (SW-620 colon): > 100 µM
- TGI (UACC-257 melanoma): > 100 µM
- TGI (RPMI-8226 leukemia): > 100 µM
- TGI (MDA-N): > 100 µM
- TGI (786-0 renal): > 100 µM

SMILES: COc1cc2oc(=O)cc(C)c2cc1O
- TGI (BT-549 breast): > 100 µM
- TGI (CAKI-1 renal): > 100 µM
- TGI (COLO 205 colon): > 100 µM
- TGI (SNB-19 CNS): > 100 µM
- TGI (RXF 393 renal): > 100 µM
- TGI (SW-620 colon): > 100 µM
- TGI (UACC-257 melanoma): > 100 µM
- TGI (SR leukemia): > 100 µM
- TGI (RPMI-8226 leukemia): > 100 µM
- TGI (MDA-N): > 100 µM
- TGI (786-0 renal): > 100 µM

SMILES: C/C(=C\c1ccccc1)C(=O)NCc1ccc(C(=O)NCCc2ccccc2)cc1
- TGI (BT-549 breast): > 100 µM
- TGI (CAKI-1 renal): > 100 µM
- TGI (COLO 205 colon): > 100 µM
- TGI (SNB-19 CNS): > 100 µM
- TGI (RXF 393 renal): 41.4 µM
- TGI (SW-620 colon): > 100 µM
- TGI (UACC-257 melanoma): > 100 µM
- TGI (SR leukemia): > 100 µM
- TGI (RPMI-8226 leukemia): > 100 µM
- TGI (MDA-N): > 100 µM
- TGI (786-0 renal): > 100 µM

SMILES: CCN(CC)C(=S)Nc1ccc(-c2cc3ccc(O)cc3oc2=O)cc1
- TGI (BT-549 breast): 85 µM
- TGI (CAKI-1 renal): > 100 µM
- TGI (COLO 205 colon): > 100 µM
- TGI (SNB-19 CNS): > 100 µM
- TGI (RXF 393 renal): > 100 µM
- TGI (SW-620 colon): > 100 µM
- TGI (UACC-257 melanoma): 48.4 µM
- TGI (SR leukemia): 93.5 µM
- TGI (RPMI-8226 leukemia): 95.8 µM
- TGI (MDA-N): > 100 µM
- TGI (786-0 renal): > 100 µM

SMILES: C(=N\Nc1ccc(-c2nc3ccccc3[nH]2)cc1)/c1c(-c2ccc(Cc3ccccc3)cc2)[nH]c2ccccc12
- TGI (BT-549 breast): 38 µM
- TGI (CAKI-1 renal): > 59.8 µM
- TGI (COLO 205 colon): 19.8 µM
- TGI (SNB-19 CNS): > 77.3 µM
- TGI (RXF 393 renal): 14.5 µM
- TGI (SW-620 colon): > 100 µM
- TGI (UACC-257 melanoma): > 89.1 µM
- TGI (SR leukemia): > 100 µM
- TGI (RPMI-8226 leukemia): > 32.5 µM
- TGI (MDA-N): > 24.5 µM
- TGI (786-0 renal): > 42.6 µM

SMILES: COC1CC(OC2C(C)OC(OC3C(C)OC(OC4C(O)CC(O[C@H]5CC[C@@]6(C)C(=CC[C@]7(O)[C@@H]6C[C@@H](OC(C)=O)[C@@]6(C)[C@]7(O)CC[C@@]6(O)C(C)=O)C5)OC4C)CC3OC)CC2OC)OC(C)C1O (stereo not given in full)
- TGI (BT-549 breast): > 12.5 µM
- TGI (CAKI-1 renal): > 12.5 µM
- TGI (COLO 205 colon): > 12.5 µM
- TGI (SNB-19 CNS): > 12.5 µM
- TGI (SW-620 colon): > 12.5 µM
- TGI (UACC-257 melanoma): > 12.5 µM
- TGI (SR leukemia): > 12.5 µM
- TGI (RPMI-8226 leukemia): > 12.5 µM
- TGI (MDA-N): > 12.5 µM
- TGI (786-0 renal): > 12.5 µM
